Earlier results on one compound are cited in patent US20080241290A1, “Sinus relief composition and method of producing the same” (priority 2007, published 2008).

For the data set the following is noted: pure capsaicinoid, Scoville scale.

As to `COc1cc(CNC(=O)CCCC/C=C/C(C)C)ccc1O` [capsaicin], the “pungency (Scoville heat units)” value is reported as 15,000,000-16,000,000 Scoville units.
